Reference: ChEMBL document CHEMBL1201862, “PubChem BioAssay data set” (2004)
Active and inactive are the calls of the source. Unless noted, the rule behind the calls is not given here.

Key:
[1] = target: Nuclear receptor subfamily 0 group B member 1 (Homo sapiens, UniProt P51843); assay type: functional, cell-based;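 also: HEK293T cells transfected with SF-1 and DAX-1 plus StAR promoter luciferase reporter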
cells = assay type: functional, cell-based
[2] = target: Fructose-bisphosphate aldolase (Mycobacterium tuberculosis, UniProt P9WQA3); test: Fluorescence-based biochemical high throughput dose response assay for inhibitors of the fructose-bisphosphate aldolase (FBA) of M. tuberculosis.; assay type: functional
Sequence of Fructose-bisphosphate aldolase (P9WQA3 whole entry): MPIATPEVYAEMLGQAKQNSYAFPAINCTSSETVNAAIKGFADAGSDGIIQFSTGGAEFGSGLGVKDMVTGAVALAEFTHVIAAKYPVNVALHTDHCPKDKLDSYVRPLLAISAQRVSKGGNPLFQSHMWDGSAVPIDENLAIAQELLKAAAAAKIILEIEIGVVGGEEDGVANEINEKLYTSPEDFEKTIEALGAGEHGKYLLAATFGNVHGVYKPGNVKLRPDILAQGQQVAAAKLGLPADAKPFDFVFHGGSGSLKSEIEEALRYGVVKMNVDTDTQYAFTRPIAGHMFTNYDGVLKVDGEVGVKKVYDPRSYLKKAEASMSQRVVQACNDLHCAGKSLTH

[3] = target: T1, Endoribonuclease toxin MazF (Escherichia coli K-12, UniProt P0AE70); test: substrate-only fluorescence increase artefacts – biochemical, single-stranded RNase substrate, counter-screen for MazEF activator project, dose response (AID 588502); assay type: functional
T1 sequence (P0AE70 whole entry): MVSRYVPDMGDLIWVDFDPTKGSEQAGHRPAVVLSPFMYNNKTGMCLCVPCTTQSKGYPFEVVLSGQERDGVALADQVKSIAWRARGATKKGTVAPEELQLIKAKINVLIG

Beta Lactamase = Beta Lactamase (Pseudomonas aeruginosa, UniProt Q932Y6);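 also: confirmatory high-throughput screen measuring VIM-2 metallo-beta-lactamase inhibition by epi-absorbance in dose response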
Sequence of Beta Lactamase (Q932Y6 whole entry): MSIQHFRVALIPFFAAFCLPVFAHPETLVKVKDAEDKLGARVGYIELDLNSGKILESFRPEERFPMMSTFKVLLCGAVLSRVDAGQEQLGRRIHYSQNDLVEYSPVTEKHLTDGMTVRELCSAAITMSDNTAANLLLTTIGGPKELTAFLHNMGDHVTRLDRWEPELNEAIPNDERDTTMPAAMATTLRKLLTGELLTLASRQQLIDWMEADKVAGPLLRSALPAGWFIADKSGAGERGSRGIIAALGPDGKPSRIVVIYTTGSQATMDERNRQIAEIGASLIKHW

Beta-lactamase [4] = target: Beta-lactamase (Salmonella choleraesuis (strain SC-B67), UniProt Q5J463)
Sequence of Beta-lactamase (Salmonella choleraesuis (strain SC-B67), UniProt Q5J463) (Q5J463 whole entry): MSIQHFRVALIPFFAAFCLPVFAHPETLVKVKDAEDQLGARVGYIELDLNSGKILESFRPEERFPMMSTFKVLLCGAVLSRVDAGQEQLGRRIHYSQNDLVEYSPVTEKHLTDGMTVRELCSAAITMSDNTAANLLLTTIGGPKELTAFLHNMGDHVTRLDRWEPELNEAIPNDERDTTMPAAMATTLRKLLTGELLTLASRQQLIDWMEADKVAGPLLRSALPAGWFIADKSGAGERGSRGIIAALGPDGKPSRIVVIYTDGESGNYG

Beta-lactamase [5] = target: Beta-lactamase (Pseudomonas aeruginosa, UniProt Q79MP6);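 also: biochemical dose-response test of metallo-beta-lactamase enzyme inhibition, read out by epi-absorbance; purified recombinant IMP-1 metallo-beta-lactamase with nitrocefin as substrate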
Sequence of Beta-lactamase (Pseudomonas aeruginosa, UniProt Q79MP6) (Q79MP6 whole entry): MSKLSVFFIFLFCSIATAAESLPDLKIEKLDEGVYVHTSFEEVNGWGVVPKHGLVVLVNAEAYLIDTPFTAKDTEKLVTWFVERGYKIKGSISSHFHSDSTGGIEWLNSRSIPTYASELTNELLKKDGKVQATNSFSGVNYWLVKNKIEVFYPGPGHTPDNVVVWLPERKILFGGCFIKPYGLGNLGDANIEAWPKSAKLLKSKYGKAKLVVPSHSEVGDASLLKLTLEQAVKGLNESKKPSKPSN

[6] = target: T1, Endoribonuclease toxin MazF; test: activation of MazEF endoribonuclease cleavage – biochemical, fluorescence, single-stranded RNA substrate, uHTS hits, dose response (AID 588481); assay type: functional
Lethal factor = Lethal factor (Bacillus anthracis, UniProt P15917); test: High-throughput multiplex microsphere dose response for inhibitors of toxin protease, specifically Lethal Factor protease, compounds from Powder Set 01.; assay type: functional, Bacillus anthracis str. A2012; conditions: read-out: EC50_MICROM
Sequence of Lethal factor (P15917 whole entry): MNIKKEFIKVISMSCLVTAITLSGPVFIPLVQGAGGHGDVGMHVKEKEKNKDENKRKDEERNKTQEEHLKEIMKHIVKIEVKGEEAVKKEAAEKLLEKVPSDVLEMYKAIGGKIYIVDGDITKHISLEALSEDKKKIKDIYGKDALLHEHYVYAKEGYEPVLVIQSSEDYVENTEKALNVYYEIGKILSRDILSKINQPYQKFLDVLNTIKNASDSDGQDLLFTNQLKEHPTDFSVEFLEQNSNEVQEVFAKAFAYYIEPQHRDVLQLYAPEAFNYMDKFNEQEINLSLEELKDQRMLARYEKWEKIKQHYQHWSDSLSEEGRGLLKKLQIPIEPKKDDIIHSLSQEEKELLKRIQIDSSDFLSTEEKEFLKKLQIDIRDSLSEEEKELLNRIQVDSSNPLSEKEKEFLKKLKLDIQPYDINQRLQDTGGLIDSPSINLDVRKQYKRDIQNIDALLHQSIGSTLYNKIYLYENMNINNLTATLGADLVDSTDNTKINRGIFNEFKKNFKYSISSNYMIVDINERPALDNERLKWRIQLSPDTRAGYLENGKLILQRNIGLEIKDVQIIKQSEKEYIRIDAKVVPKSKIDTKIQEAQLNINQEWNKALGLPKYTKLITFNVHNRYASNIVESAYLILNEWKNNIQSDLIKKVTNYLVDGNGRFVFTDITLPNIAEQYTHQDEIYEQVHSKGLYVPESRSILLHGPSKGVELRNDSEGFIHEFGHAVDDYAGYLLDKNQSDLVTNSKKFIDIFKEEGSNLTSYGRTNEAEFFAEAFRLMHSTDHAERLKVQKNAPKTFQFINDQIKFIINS

[7] = target: T2, Botulinum neurotoxin type A (Clostridium botulinum (strain Hall / ATCC 3502 / NCTC 13319 / Type A), UniProt P0DPI1); test: High-throughput multiplex microsphere dose response for inhibitors of toxin protease, specifically Botulinum neurotoxin light chain A protease, compounds from Powder Set 01.; assay type: functional, Clostridium botulinum A str. ATCC 3502; conditions: read-out: EC50_MICROM
T2 sequence (P0DPI1 2-448 limits assumed): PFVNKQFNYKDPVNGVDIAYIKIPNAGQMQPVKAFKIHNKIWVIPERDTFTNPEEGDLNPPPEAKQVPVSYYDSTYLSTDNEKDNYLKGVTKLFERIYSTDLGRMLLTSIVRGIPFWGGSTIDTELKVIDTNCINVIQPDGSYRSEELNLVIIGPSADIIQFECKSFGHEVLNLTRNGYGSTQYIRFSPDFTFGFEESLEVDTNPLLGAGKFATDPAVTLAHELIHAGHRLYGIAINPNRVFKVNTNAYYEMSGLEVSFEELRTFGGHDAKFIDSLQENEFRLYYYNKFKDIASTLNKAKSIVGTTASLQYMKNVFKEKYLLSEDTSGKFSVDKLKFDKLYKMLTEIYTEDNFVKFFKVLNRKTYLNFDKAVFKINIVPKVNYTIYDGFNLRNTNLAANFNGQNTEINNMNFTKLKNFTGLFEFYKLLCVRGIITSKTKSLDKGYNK

[8] = target: T2, Botulinum neurotoxin type A; test: Confirmatory FRET assay using full length substrates for Botulinum neurotoxin light chain A protease, with Powder Set01.; assay type: functional
[9] = target: T2, Botulinum neurotoxin type A; test: High-throughput multiplex microsphere dose response for inhibitors of toxin protease, specifically Botulinum neurotoxin light chain A protease, compounds from Cherry Pick 01.; assay type: functional; conditions: read-out: EC50_MICROM
[10] = target: Botulinum neurotoxin type F (Clostridium botulinum, UniProt P30996); test: High-throughput multiplex microsphere dose response for inhibitors of toxin protease, specifically Botulinum neurotoxin light chain F protease, compounds from Powder Set 01.; assay type: functional, Clostridium botulinum Bf; conditions: read-out: EC50_MICROM
Sequence of Botulinum neurotoxin type F (P30996 1-436 limits assumed): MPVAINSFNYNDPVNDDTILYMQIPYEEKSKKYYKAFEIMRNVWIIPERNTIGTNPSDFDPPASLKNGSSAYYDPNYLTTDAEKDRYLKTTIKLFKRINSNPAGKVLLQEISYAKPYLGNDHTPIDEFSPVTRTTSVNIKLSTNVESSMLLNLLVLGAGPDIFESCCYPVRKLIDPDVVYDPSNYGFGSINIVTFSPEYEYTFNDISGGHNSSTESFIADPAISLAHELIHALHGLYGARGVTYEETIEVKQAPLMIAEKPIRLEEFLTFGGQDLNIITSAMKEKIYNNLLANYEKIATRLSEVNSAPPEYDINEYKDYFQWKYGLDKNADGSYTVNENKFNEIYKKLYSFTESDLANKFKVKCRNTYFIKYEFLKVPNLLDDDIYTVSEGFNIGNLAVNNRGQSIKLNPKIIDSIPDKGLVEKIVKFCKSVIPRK

[11] = loss of viability in HepG2 cells – cell-based, CellTiter-Glo, cherry-picked, cytotoxicity control for Shn3 inhibitor project, dose response (AID 624134); assay type: functional
[12] = reduction of Shn3 3'UTR-driven luciferase in osteoblasts – cell-based, Clone20 osteoblasts, firefly luciferase, cherry-picked, dose response (AID 624132); assay type: functional;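 also: firefly luciferase luminescence from reporter carrying the Shn3 3'UTR in osteoblasts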
Melanocortin receptor 4 = Melanocortin receptor 4 (Homo sapiens, UniProt P32245); test: inhibitors of MC4R cAMP signaling – cell-based, TR-FRET, biased antagonists, dose response (AID 602298); assay type: functional;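 also: antagonist potency against agonist-stimulated cAMP production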
Sequence of Melanocortin receptor 4 (P32245 whole entry): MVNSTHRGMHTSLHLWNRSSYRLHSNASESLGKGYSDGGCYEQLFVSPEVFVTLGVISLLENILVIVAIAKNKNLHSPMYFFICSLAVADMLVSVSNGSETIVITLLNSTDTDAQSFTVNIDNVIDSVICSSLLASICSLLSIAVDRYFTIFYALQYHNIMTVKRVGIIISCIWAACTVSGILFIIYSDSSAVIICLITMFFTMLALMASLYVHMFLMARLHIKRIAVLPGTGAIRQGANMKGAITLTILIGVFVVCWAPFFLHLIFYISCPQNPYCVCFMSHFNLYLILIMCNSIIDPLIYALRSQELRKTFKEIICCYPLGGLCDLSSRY

[13] = cAMP pathway inhibition in counterscreen cell line – TR-FRET cAMP detection, counter-screen for MC4R biased antagonist project, dose response (AID 602305); assay type: functional, cell-based;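 also: U2OS cells stimulated with forskolin near its EC80 as the cAMP inducer; potency is for inhibition of forskolin-stimulated cAMP signaling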
[14] = non-specific 3'UTR reporter inhibition in Clone20-Shn3RL – cell-based, Renilla luciferase, cherry-picked, counter-screen for Shn3 inhibitor project, dose response (AID 624133); assay type: functional
Beta-galactosidase = Beta-galactosidase (Escherichia coli, UniProt Q8VNN2); test: Dose response counterscreen for EBI2 assay utilizing the enzyme, b-galactosidase.; assay type: functional
Sequence of Beta-galactosidase (Q8VNN2 whole entry): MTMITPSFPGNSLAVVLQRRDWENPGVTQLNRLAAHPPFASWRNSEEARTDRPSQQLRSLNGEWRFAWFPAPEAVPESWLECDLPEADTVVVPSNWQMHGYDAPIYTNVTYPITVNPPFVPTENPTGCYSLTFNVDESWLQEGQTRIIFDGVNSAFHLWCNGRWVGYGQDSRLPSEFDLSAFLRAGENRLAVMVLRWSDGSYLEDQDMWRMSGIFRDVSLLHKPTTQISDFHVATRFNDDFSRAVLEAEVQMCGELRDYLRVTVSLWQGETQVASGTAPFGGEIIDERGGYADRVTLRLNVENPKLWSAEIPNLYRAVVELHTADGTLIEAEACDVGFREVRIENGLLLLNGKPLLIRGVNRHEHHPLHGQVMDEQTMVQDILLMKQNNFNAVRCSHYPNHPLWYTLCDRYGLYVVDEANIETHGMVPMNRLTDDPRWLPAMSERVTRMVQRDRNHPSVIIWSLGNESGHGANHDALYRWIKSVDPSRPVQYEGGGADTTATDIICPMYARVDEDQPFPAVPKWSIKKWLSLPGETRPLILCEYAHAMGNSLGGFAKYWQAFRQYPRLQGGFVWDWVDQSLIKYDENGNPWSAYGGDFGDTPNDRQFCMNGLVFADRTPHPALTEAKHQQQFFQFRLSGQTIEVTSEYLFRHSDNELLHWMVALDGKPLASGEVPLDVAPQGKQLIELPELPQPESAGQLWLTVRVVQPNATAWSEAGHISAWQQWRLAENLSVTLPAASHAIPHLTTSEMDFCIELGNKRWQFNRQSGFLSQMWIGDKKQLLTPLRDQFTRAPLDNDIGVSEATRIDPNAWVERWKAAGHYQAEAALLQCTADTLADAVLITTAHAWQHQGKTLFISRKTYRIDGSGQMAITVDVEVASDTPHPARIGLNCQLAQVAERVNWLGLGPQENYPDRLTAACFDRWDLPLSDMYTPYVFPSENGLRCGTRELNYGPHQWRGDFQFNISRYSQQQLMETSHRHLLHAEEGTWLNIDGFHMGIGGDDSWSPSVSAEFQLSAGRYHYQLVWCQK

Sequence of Nuclear receptor subfamily 0 group B member 1 (P51843 whole entry): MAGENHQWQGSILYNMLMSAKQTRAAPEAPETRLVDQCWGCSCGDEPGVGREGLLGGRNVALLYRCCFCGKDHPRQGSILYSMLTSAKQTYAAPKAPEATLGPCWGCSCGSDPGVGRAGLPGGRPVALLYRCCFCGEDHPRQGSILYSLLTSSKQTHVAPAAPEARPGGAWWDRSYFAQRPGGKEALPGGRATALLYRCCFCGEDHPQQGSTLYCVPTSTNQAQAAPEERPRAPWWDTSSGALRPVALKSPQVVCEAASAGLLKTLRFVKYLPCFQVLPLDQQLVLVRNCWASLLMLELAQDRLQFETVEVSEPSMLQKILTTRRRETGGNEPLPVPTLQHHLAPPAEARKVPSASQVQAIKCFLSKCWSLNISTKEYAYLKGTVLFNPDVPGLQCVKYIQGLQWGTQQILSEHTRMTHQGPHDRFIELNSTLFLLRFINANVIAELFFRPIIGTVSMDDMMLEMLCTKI

For `CC1CCc2sc(C(=O)NC(C)C3CCCO3)cc2C1` (centres undefined), which IC50 [1] is on record?
The IC50 was > 67.5 µM (inactive).

And the IC50 (cells)?
Its IC50 is > 67.5 µM (inactive).

With `COc1ccc2oc(=O)c(C(=O)NCc3ccccn3)cc2c1` as the compound, how does the IC50 [2] read?
Its IC50 is 1.53 µM (active).

For `Oc1ccc2ccccc2c1-c1sc(Nc2ccccc2)n[n+]1-c1ccc(F)cc1`, which EC50 [3] is on record?
Its EC50 is > 99 µM (inactive).

What about the IC50 (Beta Lactamase) of the same compound?
Its IC50 is 32 µM (inactive).

And the IC50 (Beta-lactamase [4])?
Its IC50 is 23.7 µM (inactive).

What about the IC50 (Beta-lactamase [5]) of the same compound?
Its IC50 is 46.8 µM (inactive).

What about the EC50 [6] of the same compound?
Its EC50 is > 99 µM (inactive).

For `O=C(Nc1ccc2nc(-c3cccs3)c(-c3cccs3)nc2c1)N1CCOCC1`, which EC50 (Lethal factor) is on record?
The EC50 was 7.6 µM (active).

What about the EC50 [7] of the same compound?
The EC50 was 5.8 µM (active).

What about the EC50 [8] of the same compound?
Its EC50 is 0.4 µM (active).

What about the EC50 [9] of the same compound?
Its EC50 is 15.5 µM (active).

What about the EC50 [10] of the same compound?
Its EC50 is 9.6 µM (active).

For `O=C(CSc1c2c(nc3ccc(Cl)cc13)CCCC2)N1CCN(C(=O)c2ccco2)CC1`, which AC50 [11] is on record?
Its AC50 is 65.3 µM (active).

And the AC50 [12]?
The AC50 was 3.75 µM (active).

What about the IC50 (Melanocortin receptor 4) of the same compound?
The IC50 was > 64.6 µM (inactive).

What about the IC50 [13] of the same compound?
The IC50 was > 64.6 µM (inactive).

And the AC50 [14]?
The AC50 was 11.8 µM (active).

With `CN(Cc1ccccc1)C(=O)COc1ccc2ccccc2c1` as the compound, how does the IC50 (Beta-galactosidase) read?
Its IC50 is > 80 µM (inactive).
